Measurements as given in US4882349A, “Pyrrolacetic amides having antiinflammatory activity” (priority 1982, dated 1989).
Read-outs that look alike come from different tables or passages of the source.

Legend:
[1] = solubility; assay type: physicochemical
[2] = in vivo; details: mouse
[3] = system: gastric lesions; assay type: in vivo, male Wistar rats; details: 4 consecutive days; for gastric damage index: I=mean no. of lesions+mean of severity+% incidence/10; for mean severity: scale 0 (no lesion) to 5 (perforations)
Procedure: Male Wistar rats weighing 180 g were randomized into groups of 10. Three doses of each compound were administered. One group received the vehicle alone (10 ml/kg b.w.). Each dose was given orally for four days consecutively and the rats were sacrificed on the fifth day for necropsy. The ulcerogenic effect was evaluated by the following scale:
(1) each haemorrhagic point at least 1 mm in diameter was scored as 1 lesion,
(2) haemorrhagic points less than 1 mm in diameter were scored in the following manner:
(c) 20 to 29=three lesions
By means of this scale it was possible to obtain the gastric damage index:
I=mean no. of lesions+mean of severity+% incidence/10

[4] = system: brewers' yeast-induced hyperthermia; assay: antipyretic activity, brewers' yeast-induced hyperthermia; assay type: in vivo, albino male Wistar rats
Procedure: The animals were caged under the same conditions as those described in the preceding tests. Five hours following […], determined by a rectal probe connected to a YSI thermometer (73 ATP model, Yellow Springs Instrument Company) were selected for the experiment. The animals were then randomized into groups of 10 and the compounds under examination and the vehicle were administered via the oral and parenteral routes testing each dose in two groups. Body temperature was determined at one, two and three hours after administration of the substances. […]

[5] = system: phenyl-p-quinone-induced writhing (abdominal contractions); assay: phenylquinone-induced writhing test, oral administration 1-24 h before phenyl-quinone (duration of analgesia); assay type: in vivo, male Wistar rats
Procedure: Male Wistar rats weighing 110±5 g were caged for 10 days at 22±1° C. and given a balanced diet with free access to water. Twenty-four hours before the experiment the animals were randomized into groups of 10 and fasted for 14 hours but with free access to water. Each dose was tested in 3 groups of rats. […] alone (0.5% carboxymethyl-cellulose in physiological saline) in the control animals, each rat was given 2 ml of a 5% absolute ethanol aqueous solution containing 0.36% of phenyl-p-quinone (Sigma Chemical Company) in order to provoke writhings. Fifteen minutes after administration of phenyl-p-quinone the number of contractions were counted for 20 minutes. The inhibiting effect of the compounds under examination on the abdominal contractions induced by phenyl-p-quinone was calculated by the following formula: % protection= [formula]

Compound: Cc1ccc(C(=O)c2ccc(CC(=O)NCC(=O)O)n2C)cc1 [Compound 1-c, 1-methyl-5-p-toluoylpyrrole-2-acetamidoacetic acid]
- Solubility [1]: soluble in alkali
- LD50 ([2]; ip): 700 mg/kg
- LD50 ([2]; po): 1000 mg/kg
- % incidence/10 (head is drawing 38) ([3]; 50 mg/Kg orally): 7
- mean no. of lesions ([3]; 50 mg/Kg orally): 1
- gastric damage index ([3]; 50 mg/Kg orally): 9.5
- mean severity ([3]; 50 mg/Kg orally): 1.5
- % incidence/10 (head is drawing 38) ([3]; 100 mg/Kg orally): 8
- mean no. of lesions ([3]; 100 mg/Kg orally): 2
- gastric damage index ([3]; 100 mg/Kg orally): 12
- mean severity ([3]; 100 mg/Kg orally): 2
- % incidence/10 (head is drawing 38) ([3]; 200 mg/Kg orally): 9
- mean no. of lesions ([3]; 200 mg/Kg orally): 2.5
- gastric damage index ([3]; 200 mg/Kg orally): 13.5
- mean severity ([3]; 200 mg/Kg orally): 2
- % Temperature decrease ([4]; 50 mg/Kg i.p., 1 h): 20.0%
- % Temperature decrease ([4]; 50 mg/Kg i.p., 2 h): 21.9%
- % Temperature decrease ([4]; 50 mg/Kg i.p., 3 h): 36.0%
- % Temperature decrease ([4]; 50 mg/Kg per os, 1 h): 15.0%
- % Temperature decrease ([4]; 50 mg/Kg per os, 2 h): 23.0%
- % Temperature decrease ([4]; 50 mg/Kg per os, 3 h): 32.0%
- % Temperature decrease ([4]; 75 mg/Kg i.p., 1 h): 19.0%
- % Temperature decrease ([4]; 75 mg/Kg i.p., 2 h): 32.6%
- % Temperature decrease ([4]; 75 mg/Kg i.p., 3 h): 45.2%
- % Temperature decrease ([4]; 75 mg/Kg per os, 1 h): 16.5%
- % Temperature decrease ([4]; 75 mg/Kg per os, 2 h): 30.7%
- % Temperature decrease ([4]; 75 mg/Kg per os, 3 h): 42.1%
- % Temperature decrease ([4]; 100 mg/Kg i.p., 1 h): 35.0%
- % Temperature decrease ([4]; 100 mg/Kg i.p., 2 h): 49.1%
- % Temperature decrease ([4]; 100 mg/Kg i.p., 3 h): 65.7%
- % Temperature decrease ([4]; 100 mg/Kg per os, 1 h): 27.1%
- % Temperature decrease ([4]; 100 mg/Kg per os, 2 h): 31.2%
- % Temperature decrease ([4]; 100 mg/Kg per os, 3 h): 57.9%

Compound: CCOC(=O)c1ccc(NC(=O)Cc2ccc(C(=O)c3ccc(C)cc3)n2C)cc1 [Compound 1-h, 1-methyl-5-p-toluoylpyrrole-2-N-(4-carboxyethyl-phenyl) acetamide]
- % incidence/10 (head is drawing 38) ([3]; 50 mg/Kg orally): 7
- mean no. of lesions ([3]; 50 mg/Kg orally): 1
- gastric damage index ([3]; 50 mg/Kg orally): 9
- mean severity ([3]; 50 mg/Kg orally): 1
- % incidence/10 (head is drawing 38) ([3]; 100 mg/Kg orally): 8
- mean no. of lesions ([3]; 100 mg/Kg orally): 1.5
- gastric damage index ([3]; 100 mg/Kg orally): 10.5
- mean severity ([3]; 100 mg/Kg orally): 1
- % incidence/10 (head is drawing 38) ([3]; 200 mg/Kg orally): 8
- mean no. of lesions ([3]; 200 mg/Kg orally): 2
- gastric damage index ([3]; 200 mg/Kg orally): 11.5
- mean severity ([3]; 200 mg/Kg orally): 1.5
- % Temperature decrease ([4]; 50 mg/Kg i.p., 1 h): 12.0%
- % Temperature decrease ([4]; 50 mg/Kg i.p., 2 h): 29.1%
- % Temperature decrease ([4]; 50 mg/Kg i.p., 3 h): 36.2%
- % Temperature decrease ([4]; 50 mg/Kg per os, 1 h): 13.0%
- % Temperature decrease ([4]; 50 mg/Kg per os, 2 h): 28.0%
- % Temperature decrease ([4]; 50 mg/Kg per os, 3 h): 31.1%
- % Temperature decrease ([4]; 75 mg/Kg i.p., 1 h): 18.0%
- % Temperature decrease ([4]; 75 mg/Kg i.p., 2 h): 27.2%
- % Temperature decrease ([4]; 75 mg/Kg i.p., 3 h): 39.4%
- % Temperature decrease ([4]; 75 mg/Kg per os, 1 h): 17.0%
- % Temperature decrease ([4]; 75 mg/Kg per os, 2 h): 29.1%
- % Temperature decrease ([4]; 75 mg/Kg per os, 3 h): 39.4%
- % Temperature decrease ([4]; 100 mg/Kg i.p., 1 h): 23.1%
- % Temperature decrease ([4]; 100 mg/Kg i.p., 2 h): 39.3%
- % Temperature decrease ([4]; 100 mg/Kg i.p., 3 h): 60.2%
- % Temperature decrease ([4]; 100 mg/Kg per os, 1 h): 21.0%
- % Temperature decrease ([4]; 100 mg/Kg per os, 2 h): 35.1%
- % Temperature decrease ([4]; 100 mg/Kg per os, 3 h): 51.8%

Compound: Cc1ccc(C(=O)c2ccc(CC(=O)N3CCOCC3)n2C)cc1 [Compound 3-a, 1-methyl-5-p-toluoylpyrrole-2-N-(4-morpholinyl) acetamide]
- LD50 ([2]; ip): 1500 mg/kg
- LD50 ([2]; po): > 2000 mg/kg
- % incidence/10 (head is drawing 38) ([3]; 50 mg/Kg orally): 7
- mean no. of lesions ([3]; 50 mg/Kg orally): 1
- gastric damage index ([3]; 50 mg/Kg orally): 9
- mean severity ([3]; 50 mg/Kg orally): 1
- % incidence/10 (head is drawing 38) ([3]; 100 mg/Kg orally): 8
- mean no. of lesions ([3]; 100 mg/Kg orally): 1.5
- gastric damage index ([3]; 100 mg/Kg orally): 11.5
- mean severity ([3]; 100 mg/Kg orally): 2
- % incidence/10 (head is drawing 38) ([3]; 200 mg/Kg orally): 9
- mean no. of lesions ([3]; 200 mg/Kg orally): 1.5
- gastric damage index ([3]; 200 mg/Kg orally): 12.5
- mean severity ([3]; 200 mg/Kg orally): 2
- % Temperature decrease ([4]; 50 mg/Kg i.p., 1 h): 16.0%
- % Temperature decrease ([4]; 50 mg/Kg i.p., 2 h): 26.0%
- % Temperature decrease ([4]; 50 mg/Kg i.p., 3 h): 36.7%
- % Temperature decrease ([4]; 50 mg/Kg per os, 1 h): 15.5%
- % Temperature decrease ([4]; 50 mg/Kg per os, 2 h): 23.0%
- % Temperature decrease ([4]; 50 mg/Kg per os, 3 h): 32.1%
- % Temperature decrease ([4]; 75 mg/Kg i.p., 1 h): 19.0%
- % Temperature decrease ([4]; 75 mg/Kg i.p., 2 h): 30.2%
- % Temperature decrease ([4]; 75 mg/Kg i.p., 3 h): 39.4%
- % Temperature decrease ([4]; 75 mg/Kg per os, 1 h): 16.2%
- % Temperature decrease ([4]; 75 mg/Kg per os, 2 h): 29.1%
- % Temperature decrease ([4]; 75 mg/Kg per os, 3 h): 39.4%
- % Temperature decrease ([4]; 100 mg/Kg i.p., 1 h): 21.3%
- % Temperature decrease ([4]; 100 mg/Kg i.p., 2 h): 36.1%
- % Temperature decrease ([4]; 100 mg/Kg i.p., 3 h): 58.1%
- % Temperature decrease ([4]; 100 mg/Kg per os, 1 h): 22.0%
- % Temperature decrease ([4]; 100 mg/Kg per os, 2 h): 29.5%
- % Temperature decrease ([4]; 100 mg/Kg per os, 3 h): 56.1%

Compound: Cc1ccc(C(=O)c2ccc(CC(=O)N3CCN(C)CC3)n2C)cc1 [Compound 3-b, 1-methyl-5-p-toluoylpyrrole-2-N-[(4-methyl)-1-piperazinyl] acetamide]
- LD50 ([2]; ip): 770 mg/kg
- LD50 ([2]; po): 1200 mg/kg
- % incidence/10 (head is drawing 38) ([3]; 50 mg/Kg orally): 7
- mean no. of lesions ([3]; 50 mg/Kg orally): 1
- gastric damage index ([3]; 50 mg/Kg orally): 9
- mean severity ([3]; 50 mg/Kg orally): 1
- % incidence/10 (head is drawing 38) ([3]; 100 mg/Kg orally): 7
- mean no. of lesions ([3]; 100 mg/Kg orally): 1
- % incidence/10 (head is drawing 38) ([3]; 200 mg/Kg orally): 8
- mean no. of lesions ([3]; 200 mg/Kg orally): 2
- % Temperature decrease ([4]; 50 mg/Kg i.p., 1 h): 12.9%
- % Temperature decrease ([4]; 50 mg/Kg i.p., 2 h): 23.0%
- % Temperature decrease ([4]; 50 mg/Kg i.p., 3 h): 38.3%
- % Temperature decrease ([4]; 50 mg/Kg per os, 1 h): 13.1%
- % Temperature decrease ([4]; 50 mg/Kg per os, 2 h): 21.0%
- % Temperature decrease ([4]; 50 mg/Kg per os, 3 h): 36.2%
- % Temperature decrease ([4]; 75 mg/Kg i.p., 1 h): 23.4%
- % Temperature decrease ([4]; 75 mg/Kg i.p., 2 h): 29.0%
- % Temperature decrease ([4]; 75 mg/Kg i.p., 3 h): 48.5%
- % Temperature decrease ([4]; 75 mg/Kg per os, 1 h): 19.0%
- % Temperature decrease ([4]; 75 mg/Kg per os, 2 h): 29.1%
- % Temperature decrease ([4]; 75 mg/Kg per os, 3 h): 40.6%
- % Temperature decrease ([4]; 100 mg/Kg i.p., 1 h): 32.9%
- % Temperature decrease ([4]; 100 mg/Kg i.p., 2 h): 39.0%
- % Temperature decrease ([4]; 100 mg/Kg i.p., 3 h): 60.1%
- % Temperature decrease ([4]; 100 mg/Kg per os, 1 h): 27.0%
- % Temperature decrease ([4]; 100 mg/Kg per os, 2 h): 35.0%
- % Temperature decrease ([4]; 100 mg/Kg per os, 3 h): 59.7%

Compound: Cc1ccc(C(=O)c2ccc(CC(=O)O)n2C)cc1 [Tolmetin Na.2H2 O, 1-methyl-5-p-toluoylpyrrole-2-acetic acid, reference compound]
- % Protection ([5]; 10 mg/Kg oral, 1 h before phenyl-quinone): 51.8%
- % Protection ([5]; 10 mg/Kg oral, 2 h before phenyl-quinone): 35.5%
- % Protection ([5]; 10 mg/Kg oral, 4 h before phenyl-quinone): 32.0%
- % Protection ([5]; 10 mg/Kg oral, 6 h before phenyl-quinone): 17.2%
- % Protection ([5]; 10 mg/Kg oral, 8 h before phenyl-quinone): 20.2%
- % Protection ([5]; 10 mg/Kg oral, 16 h before phenyl-quinone): 3.0%
- % Protection ([5]; 10 mg/Kg oral, 24 h before phenyl-quinone): 5.0%
- % Protection ([5]; 20 mg/Kg oral, 1 h before phenyl-quinone): 79.6%
- % Protection ([5]; 20 mg/Kg oral, 2 h before phenyl-quinone): 78.0%
- % Protection ([5]; 20 mg/Kg oral, 4 h before phenyl-quinone): 50.0%
- % Protection ([5]; 20 mg/Kg oral, 6 h before phenyl-quinone): 45.3%
- % Protection ([5]; 20 mg/Kg oral, 8 h before phenyl-quinone): 40.1%
- % Protection ([5]; 20 mg/Kg oral, 16 h before phenyl-quinone): 8.7%
- % Protection ([5]; 20 mg/Kg oral, 24 h before phenyl-quinone): 4.2%
- % Protection ([5]; 50 mg/Kg oral, 1 h before phenyl-quinone): 81.0%
- % Protection ([5]; 50 mg/Kg oral, 2 h before phenyl-quinone): 84.6%
- % Protection ([5]; 50 mg/Kg oral, 4 h before phenyl-quinone): 62.5%
- % Protection ([5]; 50 mg/Kg oral, 6 h before phenyl-quinone): 49.7%
- % Protection ([5]; 50 mg/Kg oral, 8 h before phenyl-quinone): 45.0%
- % Protection ([5]; 50 mg/Kg oral, 16 h before phenyl-quinone): 9.3%
- % Protection ([5]; 50 mg/Kg oral, 24 h before phenyl-quinone): 3.8%
